{"source": "patent US20070225213A1", "about": "“Nucleic acid carriers for delivery of therapeutic agents” (priority 2006, published 2007)", "key": {"[1]": {"assay": "In vivo MTN distribution in organs after single i.v. dose (Example 15, EX102005)", "set-up": "species or system mice", "conditions": "iv, 0.075 mg MTN per mouse i.v.", "method": "Procedure: Prior to formulation of MTN with carrier, the DNA carrier was standardized and assayed for loading limits with MTN by absorbance spectrometry. […] Herring sperm […] […] One milliliter (1 ml) of each homogenate was then transferred to a 1.7 ml centrifuge tube and centrifuged for 10 min at 10000 rcf. Supernatants were removed and fluorescence of 0.3 ml of samples was read at 620/680 nm s=50. […] Total MTN was calculated by converting fluorescence data to mg/ml MTN using a MTN standard curve. The mg/ml MTN was then multiplied by total vol. homogenate to obtain total MTN per organ."}, "COS7": {"test_system": "COS7", "assay": "Cell uptake by MTN fluorescence EX620/EM680 (Examples 10 and 13, EX051605)", "format": "cell-based, green monkey", "conditions": "10% w/w loading in DNA", "method": "(§1) Materials: HSGDNA, MTN, ODNAS1116 (phosphorothioated, single stranded DNA, and Beta-cyclodextrin polymer (BCD-SBE, KKBIOMED Inc.) were previously prepared in water at 10 mg/ml, 1 mg/ml, 0.95 mg/ml, and 10 mg/ml respectively.\n(§2) Procedure: For NAC-MTN, combined 37 ul HSGDNA (herring genomic DNA, Promega Inc.), 1426 ul HBSS( Hank's buffered saline, Sigma-Aldrich), with 37 ul of MTN, followed by 1500 ul 2× DMEM media to give 3 ml final and 24 uM (24 micro-molar) MTN and 10% w/w drug loading of MTN. For NAC-MTN (AR1505) combined 62 ul of HSDNA (deg. herring sperm DNA, Sigma) with 2377 ul HBSS, 61.7 ul MTN, 2500 ul 2× media to give 5 ml final and 24 uM MTN and 10% w/w drug loading of MTN to HSDNA. […]\n(§3) Plate#1 Media was aspirated and cells treated with 100 ul of either NAC-MTN, CD-MTN, or MTN at 24 uM MTN final or 12.3 ug/ml MTN in all samples. Samples containing MTN were incubated 4 hours, removed, and fluorescence taken at EX620/EM680. […]\n(§4) Samples were incubated 4 hours, removed, and MTN fluorescence taken at EX620/EM680. […] Average MTN fluorescence was averaged from 6 wells. For each cell type, MTN fluorescence was highest in MTN treated cells, followed by CD-MTN, and lowest in NAC-MTN. […]\n(§5) PLATE#2: Dispensed 50 ul from source plate into plate #2 to give 150 ul final vol 4.1 ug/ml, 8 uMfinal per well, pre-read fluorescence w samples (bkgd) incubated 5 hr, removed, replaced w/ media, read fluor. […]"}, "[2]": {"assay": "DNA addition method: NAC complexed vs unbound MTN in mouse urine (Example 17)", "quoted_text": "To determine if NAC-MTN was excreted in urine as a complex, MTN fluorescence due to unbound NAC was assayed by an addition method. DNA was added to urine from both groups and subsequent change in fluorescence was measured."}, "3T3": {"test_system": "3T3", "assay": "Cell uptake by MTN fluorescence EX620/EM680 (Examples 10 and 13, EX051605)", "format": "cell-based, mouse", "conditions": "10% w/w loading in DNA", "method": "as §1, §2, §3, §4, §5"}}, "note": "Where two headings read alike, the source gives them in different places.", "data": [{"smiles": "O=C1c2c(O)ccc(O)c2C(=O)c2c(NCCNCCO)ccc(NCCNCCO)c21", "note": "[MTN, mitoxantrone]", "values": [{"measurement": "concentration at 1 h", "setting": "[1]; heart, read-out: Density of MTN in tissue: Heart", "value": 96000, "unit": "ng/g"}, {"measurement": "concentration at 1 h", "setting": "[1]; kidney, read-out: Density of MTN in tissue: Kidney", "value": 49000, "unit": "ng/g"}, {"measurement": "concentration at 1 h", "setting": "[1]; liver, read-out: Density of MTN in tissue: Liver", "value": 10000, "unit": "ng/g"}, {"measurement": "concentration at 1 h", "setting": "[1]; lung, read-out: Density of MTN in tissue: Lung", "value": 43000, "unit": "ng/g"}, {"measurement": "% reduction in fluorescence relative to MTN alone (MTN = 0%)", "setting": "COS7; Plate#1, 24 uM MTN, 4 hours", "value": 0, "unit": "%"}, {"measurement": "% reduction in fluorescence relative to MTN alone (MTN = 0%)", "setting": "COS7; Plate#2, 8 uM MTN", "value": 0, "unit": "%"}, {"measurement": "% Change Fluor. on DNA addition to urine", "setting": "[2]; Elapsed Time 2.5 hr", "value": 83, "unit": "%"}, {"measurement": "% Change Fluor. on DNA addition to urine", "setting": "[2]; Elapsed Time 5 hr", "value": 66, "unit": "%"}, {"measurement": "% Change Fluor. on DNA addition to urine", "setting": "[2]; Elapsed Time 8 hr", "value": 71, "unit": "%"}, {"measurement": "% reduction in fluorescence relative to MTN alone (MTN = 0%)", "setting": "3T3; Plate#1, 24 uM MTN, 4 hours", "value": 0, "unit": "%"}, {"measurement": "% reduction in fluorescence relative to MTN alone (MTN = 0%)", "setting": "3T3; Plate#2, 8 uM MTN", "value": 0, "unit": "%"}]}]}
